Test results: patent US4568490A, “Aminopropylaminobleomycin derivatives and process for preparation thereof” (Zaidan Hojin Biseibutsu Kagaku Kenkyu Kai, priority 1981, dated 1986)

Assays:
[1] = system: Mycobacterium smegmatis ATCC 607; assay: Antimicrobial activity, agar plate-cylinder method; format: cell-based; conditions: Cu-free form; bleomycin A2 (Cu-free form) standard assumed 1,000 mcg/mg
Procedure: (§1) The activity was assayed against the above test microorganisms by the method of agar plate-cylinder, assuming the potency of bleomycin A2 (Cu-free form), used as standard, to be 1,000 mcg/mg.

Bacillus subtilis = assay: Antimicrobial activity, agar plate-cylinder method; format: cell-based; conditions: Cu-free form; bleomycin A2 (Cu-free form) standard assumed 1,000 mcg/mg
Procedure: (1) Antimicrobial activity against Mycobacterium smegmatis ATCC 697 and Bacillus subtilis.
as §1

Hela S3 cells = assay: Growth inhibitory activity against Hela S3 cells; format: cell-based; conditions: Cu-free form; Hela S3, 3 days incubation with compound
Procedure: The percentage growth inhibition was calculated using the equation: […] wherein A is the ultimate number of cells on the third day from the addition of a test sample, B is the ultimate number of cells in the control (without the addition of test sample), and C is the number of cells on the day of addition of the test sample.

ICR strain mice = assay: Pulmonary toxicity (pulmonary fibrosis) in mice, intraperitoneal injection; format: in vivo; conditions: 5 mg/kg i.p. once a day for 10 days; for Grade of pulmonary fibrosis, % / Incidence of pulmonary fibrosis, % / Incidence: number of mice suffering from pulmonary fibrosis / Grade: total score of pulmonary fibrosis/total number of test animal: autopsy after 5 weeks; for Incidence: number of mice suffering from pulmonary fibrosis: affected/total mice; for Grade: total score of pulmonary fibrosis/total number of test animal: score 0-6 points; for Grade of pulmonary fibrosis, Ratio / Incidence of pulmonary fibrosis, Ratio: reference of the ratio not stated
Procedure: (3) Pulmonary toxicity (pulmonary fibrosis) in mice.
ICR strain mice (male; 15 weeks old; 9 mice per group) were used. Each mouse was administered with a daily dose of 5 mg/kg of the test sample by intraperitoneal injection, once a day, for 10 consecutive days. After completion of the predetermined administration, the mice were kept for 5 weeks under observation, then slaughtered, and autopsied to examine the incidence and grade of pulmonary fibrosis. The evaluation was made by comparing the number of administered mice suffering from pulmonary fibrosis and the grade of the disease.
In Tables 4A and 4B, the grade was numerically rated as follows:
1 point: Accumulation of exudate in pulmonary alveoli and fibrosis-like change in alveolar septum.
2 points: Fibrosis in several areas.
4 points: Scattered fibrosis.
6 points: Fibrosis in more than two-thirds of the total area.

In the case of `Cc1c(N)nc(C(CC(N)=O)NCC(N)C(N)=O)nc1C(=O)NC(C(=O)NC(C)C(O)C(C)C(=O)NC(C(=O)NCCc1nc(-c2nc(C(=O)NCCCN(C)CCCNCc3ccc(C#N)cc3)cs2)cs1)C(C)O)C(OC1OC(CO)C(O)C(O)C1OC1OC(CO)C(O)C(OC(N)=O)C1O)c1cnc[nH]1` (stereo not drawn) [compound 18, 3-{N--Methyl-N--[3'-(p-cyanobenzylamino)propyl]amino}propylaminoBLM], the “Antimicrobial potency of Cu--free compound, against Mycobacterium smegmatis ATCC 607” value [1] is reported as 3163 mcg potency per mg, the “Antimicrobial potency of Cu--free compound, against Bacillus subtilis” value (Bacillus subtilis) is reported as 4347 mcg potency per mg and the “50% growth inhibition concentration (ID50) of Cu--free compound against cultured Hela cell” value (Hela S3 cells) is reported as 1.10 µg/mL. The “Grade of pulmonary fibrosis, %” value (ICR strain mice) was 0%, the “Incidence of pulmonary fibrosis, %” value (ICR strain mice) was 0% and the “Incidence: number of mice suffering from pulmonary fibrosis” value (shortened to “Incidence: number of mice suffering”) (ICR strain mice) was 0/9. The “Grade: total score of pulmonary fibrosis/total number of test animal” value (ICR strain mice) was 0/27, the “Grade of pulmonary fibrosis, Ratio” value (ICR strain mice) was 0.00 and the “Incidence of pulmonary fibrosis, Ratio” value (ICR strain mice) was 0.00.
For `Cc1c(N)nc(C(CC(N)=O)NCC(N)C(N)=O)nc1C(=O)NC(C(=O)NC(C)C(O)C(C)C(=O)NC(C(=O)NCCc1nc(-c2nc(C(=O)NCCCN(C)CCCN(Cc3cc(OCc4ccccc4)c(OCc4ccccc4)c(OCc4ccccc4)c3)Cc3cc(OCc4ccccc4)c(OCc4ccccc4)c(OCc4ccccc4)c3)cs2)cs1)C(C)O)C(OC1OC(CO)C(O)C(O)C1OC1OC(CO)C(O)C(OC(N)=O)C1O)c1cnc[nH]1` (stereo not drawn) [compound 53, 3-{N--Methyl-N--[3'-(bis(3",4",5"-tribenzyloxybenzyl)amino)propyl]amino}propylaminoBLM], the “Antimicrobial potency of Cu--free compound, against Mycobacterium smegmatis ATCC 607” value [1] was 11 mcg potency per mg, the “Antimicrobial potency of Cu--free compound, against Bacillus subtilis” value (Bacillus subtilis) was 26 mcg potency per mg and the “50% growth inhibition concentration (ID50) of Cu--free compound against cultured Hela cell” value (Hela S3 cells) was 0.062 µg/mL. For the same compound, the “Grade of pulmonary fibrosis, %” value (ICR strain mice) was 0%, the “Incidence of pulmonary fibrosis, %” value (ICR strain mice) was 0% and the “Incidence: number of mice suffering” value (ICR strain mice) was 0/9. The “Grade: total score of pulmonary fibrosis/total number of test animal” value (ICR strain mice) was 0/27, the “Grade of pulmonary fibrosis, Ratio” value (ICR strain mice) was 0.00 and the “Incidence of pulmonary fibrosis, Ratio” value (ICR strain mice) was 0.00.
With `Cc1c(N)nc(C(CC(N)=O)NCC(N)C(N)=O)nc1C(=O)NC(C(=O)NC(C)C(O)C(C)C(=O)NC(C(=O)NCCc1nc(-c2nc(C(=O)NCCCN(C)CCCN(Cc3ccc(OCC4CCCCCCC4)cc3)Cc3ccc(OCC4CCCCCCC4)cc3)cs2)cs1)C(C)O)C(OC1OC(CO)C(O)C(O)C1OC1OC(CO)C(O)C(OC(N)=O)C1O)c1cnc[nH]1` (stereo not drawn) [compound 52, 3-{N--Methyl-N--[3'-(bis(p-cyclooctylmethyloxybenzyl)amino)propyl)amino}propylaminoBLM] the “Antimicrobial potency of Cu--free compound, against Mycobacterium smegmatis ATCC 607” value [1] was 268 mcg potency per mg, the “Antimicrobial potency of Cu--free compound, against Bacillus subtilis” value (Bacillus subtilis) was 49 mcg potency per mg and the “50% growth inhibition concentration (ID50) of Cu--free compound against cultured Hela cell” value (Hela S3 cells) was 0.13 µg/mL. The “Grade of pulmonary fibrosis, %” value (ICR strain mice) was 0%, the “Incidence of pulmonary fibrosis, %” value (ICR strain mice) was 0% and the “Incidence: number of mice suffering” value (ICR strain mice) was 0/9. The “Grade: total score of pulmonary fibrosis/total number of test animal” value (ICR strain mice) was 0/27, the “Grade of pulmonary fibrosis, Ratio” value (ICR strain mice) was 0.00 and the “Incidence of pulmonary fibrosis, Ratio” value (ICR strain mice) was 0.00.
In the case of `COc1ccc(COc2ccc(CN(CCCN(C)CCCNC(=O)c3csc(-c4csc(CCNC(=O)C(NC(=O)C(C)C(O)C(C)NC(=O)C(NC(=O)c5nc(C(CC(N)=O)NCC(N)C(N)=O)nc(N)c5C)C(OC5OC(CO)C(O)C(O)C5OC5OC(CO)C(O)C(OC(N)=O)C5O)c5cnc[nH]5)C(C)O)n4)n3)Cc3ccc(OCc4ccc(OC)cc4)c(OCc4ccc(OC)cc4)c3)cc2OCc2ccc(OC)cc2)cc1` (stereo not drawn) [compound 50], the “Antimicrobial potency of Cu--free compound, against Mycobacterium smegmatis ATCC 607” value [1] is reported as 145 mcg potency per mg, the “Antimicrobial potency of Cu--free compound, against Bacillus subtilis” value (Bacillus subtilis) is reported as 35 mcg potency per mg and the “50% growth inhibition concentration (ID50) of Cu--free compound against cultured Hela cell” value (Hela S3 cells) is reported as 0.70 µg/mL. For the same compound, the “Grade of pulmonary fibrosis, %” value (ICR strain mice) was 0%, the “Incidence of pulmonary fibrosis, %” value (ICR strain mice) was 0% and the “Incidence: number of mice suffering” value (ICR strain mice) was 0/9. For the same compound, the “Grade: total score of pulmonary fibrosis/total number of test animal” value (ICR strain mice) was 0/27, the “Grade of pulmonary fibrosis, Ratio” value (ICR strain mice) was 0.00 and the “Incidence of pulmonary fibrosis, Ratio” value (ICR strain mice) was 0.00.
With `Cc1c(N)nc(C(CC(N)=O)NCC(N)C(N)=O)nc1C(=O)NC(C(=O)NC(C)C(O)C(C)C(=O)NC(C(=O)NCCc1nc(-c2nc(C(=O)NCCCN3CCN(CCCNCc4ccc(Cl)cc4)CC3)cs2)cs1)C(C)O)C(OC1OC(CO)C(O)C(O)C1OC1OC(CO)C(O)C(OC(N)=O)C1O)c1cnc[nH]1` (stereo not drawn) [compound 44, 3-[4-(3-p-Chlorobenzylaminopropyl)piperazin-l-yl]propylaminoBLM] the “Antimicrobial potency of Cu--free compound, against Mycobacterium smegmatis ATCC 607” value [1] was 11350 mcg potency per mg, the “Antimicrobial potency of Cu--free compound, against Bacillus subtilis” value (Bacillus subtilis) was 6080 mcg potency per mg and the “50% growth inhibition concentration (ID50) of Cu--free compound against cultured Hela cell” value (Hela S3 cells) was 0.31 µg/mL. For the same compound, the “Grade of pulmonary fibrosis, %” value (ICR strain mice) was 0%, the “Incidence of pulmonary fibrosis, %” value (ICR strain mice) was 0% and the “Incidence: number of mice suffering” value (ICR strain mice) was 0/9. For the same compound, the “Grade: total score of pulmonary fibrosis/total number of test animal” value (ICR strain mice) was 0/27, the “Grade of pulmonary fibrosis, Ratio” value (ICR strain mice) was 0.00 and the “Incidence of pulmonary fibrosis, Ratio” value (ICR strain mice) was 0.00.
With `Cc1c(N)nc(C(CC(N)=O)NCC(N)C(N)=O)nc1C(=O)NC(C(=O)NC(C)C(O)C(C)C(=O)NC(C(=O)NCCc1nc(-c2nc(C(=O)NCCCN(C)CCCNCCc3ccc(Cl)cc3)cs2)cs1)C(C)O)C(OC1OC(CO)C(O)C(O)C1OC1OC(CO)C(O)C(OC(N)=O)C1O)c1cnc[nH]1` (stereo not drawn) [compound 1, 3-{N--Methyl-N--[3'-(2"-p-chlorophenylethylamino)propyl]amino}propylaminoBLM] the “Antimicrobial potency of Cu--free compound, against Mycobacterium smegmatis ATCC 607” value [1] was 16800 mcg potency per mg, the “Antimicrobial potency of Cu--free compound, against Bacillus subtilis” value (Bacillus subtilis) was 13266 mcg potency per mg and the “50% growth inhibition concentration (ID50) of Cu--free compound against cultured Hela cell” value (Hela S3 cells) was 0.54 µg/mL. For the same compound, the “Grade of pulmonary fibrosis, %” value (ICR strain mice) was 11%, the “Incidence of pulmonary fibrosis, %” value (ICR strain mice) was 22% and the “Incidence: number of mice suffering” value (ICR strain mice) was 2/9. The “Grade: total score of pulmonary fibrosis/total number of test animal” value (ICR strain mice) was 3/27, the “Grade of pulmonary fibrosis, Ratio” value (ICR strain mice) was 0.13 and the “Incidence of pulmonary fibrosis, Ratio” value (ICR strain mice) was 0.35.
For `Cc1c(N)nc(C(CC(N)=O)NCC(N)C(N)=O)nc1C(=O)NC(C(=O)NC(C)C(O)C(C)C(=O)NC(C(=O)NCCc1nc(-c2nc(C(=O)NCCCN(C)CCCN(Cc3ccc(OCc4ccc(Cl)cc4)c(OCc4ccc(Cl)cc4)c3)Cc3ccc(OCc4ccc(Cl)cc4)c(OCc4ccc(Cl)cc4)c3)cs2)cs1)C(C)O)C(OC1OC(CO)C(O)C(O)C1OC1OC(CO)C(O)C(OC(N)=O)C1O)c1cnc[nH]1` (stereo not drawn) [compound 48, 3-{N--Methyl-N--[3'-(bis(3",4"di(p-chlorobenzyloxy)benzyl)amino)propyl]amino}propylaminoBLM], the “Antimicrobial potency of Cu--free compound, against Mycobacterium smegmatis ATCC 607” value [1] was 14 mcg potency per mg, the “Antimicrobial potency of Cu--free compound, against Bacillus subtilis” value (Bacillus subtilis) was 8 mcg potency per mg and the “50% growth inhibition concentration (ID50) of Cu--free compound against cultured Hela cell” value (Hela S3 cells) was 0.058 µg/mL. For the same compound, the “Grade of pulmonary fibrosis, %” value (ICR strain mice) was 0%, the “Incidence of pulmonary fibrosis, %” value (ICR strain mice) was 0% and the “Incidence: number of mice suffering” value (ICR strain mice) was 0/9. The “Grade: total score of pulmonary fibrosis/total number of test animal” value (ICR strain mice) was 0/27, the “Grade of pulmonary fibrosis, Ratio” value (ICR strain mice) was 0.00 and the “Incidence of pulmonary fibrosis, Ratio” value (ICR strain mice) was 0.00.
